How the values were obtained:
Experiment in all cases: Effect of metal salts on the color of the marker part, substrate 50 mg/l in Columbia medium (Example 3)
Format in all cases: cell-based
Listeria innocua 029 = test system: Listeria innocua 029
Method: (§1) To the Columbia-base medium (46.37 g/l) supplemented with Alizarin-2-β-D-glucoside (50 mg/l), were added either Manganese chloride, Ammoniacal iron citrate, Tin chloride, or Aluminum sulfate, all at a concentration of 50 mg/l. A control medium with no metal salts was tested in parallel. After autoclaving, these various media were all used to prepare Petri dishes (20 ml per plate). […] It should be pointed out that intensity readings are in arbitrary units. The only purpose of giving these values is to make it possible to compare one strain with another in this respect. The same is true for the examples which follow. Similarly, the strains tested were taken from the Applicant's collection and the number given represents an internal reference specific to this collection. The same internal numbering system is also used in some of the examples given later on.

Listeria innocua 036 = test system: Listeria innocua 036
Method: as §1

Listeria ivanovii 020 = test system: Listeria ivanovii 020
Method: as §1

Listeria ivanovii 032 = test system: Listeria ivanovii 032
Method: as §1

[1] = test system: Listeria monocytogenes 023
Method: as §1

[2] = test system: Listeria monocytogenes 079
Method: as §1

Listeria welshimeri 023 = test system: Listeria welshimeri 023
Method: as §1

[3] = Manganese chloride 50 mg/l, 24 H
[4] = Manganese chloride 50 mg/l, 48 H

O=C1c2ccccc2C(=O)c2c1ccc(O[C@@H]1O[C@H](CO)[C@@H](O)[C@H](O)[C@H]1O)c2O [Alizarin-2-β-D-glucoside]
Color (Listeria innocua 029; Aluminum sulfate 50 mg/l, 24 H): red | Intensity (Listeria innocua 029; Aluminum sulfate 50 mg/l, 24 H): 4 arbitrary units | Color (Listeria innocua 029; Aluminum sulfate 50 mg/l, 48 H): red | Intensity (Listeria innocua 029; Aluminum sulfate 50 mg/l, 48 H): 4 arbitrary units | Color (Listeria innocua 029; Control, no metal salt, 24 H): purple | Intensity (Listeria innocua 029; Control, no metal salt, 24 H): 2 arbitrary units | Color (Listeria innocua 029; Control, no metal salt, 48 H): purple | Intensity (Listeria innocua 029; Control, no metal salt, 48 H): 2.3 arbitrary units | Color (Listeria innocua 029; Iron citrate 50 mg/l, 24 H): purple | Intensity (Listeria innocua 029; Iron citrate 50 mg/l, 24 H): 4 arbitrary units | Color (Listeria innocua 029; Iron citrate 50 mg/l, 48 H): purple | Intensity (Listeria innocua 029; Iron citrate 50 mg/l, 48 H): 4 arbitrary units | Color (Listeria innocua 029; [3]): purple | Intensity (Listeria innocua 029; [3]): 2.3 arbitrary units | Color (Listeria innocua 029; [4]): purple | Intensity (Listeria innocua 029; [4]): 2.3 arbitrary units | Color (Listeria innocua 029; Tin chloride 50 mg/l, 24 H): orange | Intensity (Listeria innocua 029; Tin chloride 50 mg/l, 24 H): 3 arbitrary units | Color (Listeria innocua 029; Tin chloride 50 mg/l, 48 H): orange | Intensity (Listeria innocua 029; Tin chloride 50 mg/l, 48 H): 4 arbitrary units | Color (Listeria innocua 036; Aluminum sulfate 50 mg/l, 24 H): red | Intensity (Listeria innocua 036; Aluminum sulfate 50 mg/l, 24 H): 4 arbitrary units | Color (Listeria innocua 036; Aluminum sulfate 50 mg/l, 48 H): red | Intensity (Listeria innocua 036; Aluminum sulfate 50 mg/l, 48 H): 4 arbitrary units | Color (Listeria innocua 036; Control, no metal salt, 24 H): purple | Intensity (Listeria innocua 036; Control, no metal salt, 24 H): 2.3 arbitrary units | Color (Listeria innocua 036; Control, no metal salt, 48 H): purple | Intensity (Listeria innocua 036; Control, no metal salt, 48 H): 2.7 arbitrary units | Color (Listeria innocua 036; Iron citrate 50 mg/l, 24 H): purple | Intensity (Listeria innocua 036; Iron citrate 50 mg/l, 24 H): 4 arbitrary units | Color (Listeria innocua 036; Iron citrate 50 mg/l, 48 H): purple | Intensity (Listeria innocua 036; Iron citrate 50 mg/l, 48 H): 4 arbitrary units | Color (Listeria innocua 036; [3]): purple | Intensity (Listeria innocua 036; [3]): 2.3 arbitrary units | Color (Listeria innocua 036; [4]): purple | Intensity (Listeria innocua 036; [4]): 2.7 arbitrary units | Color (Listeria innocua 036; Tin chloride 50 mg/l, 24 H): orange | Intensity (Listeria innocua 036; Tin chloride 50 mg/l, 24 H): 3 arbitrary units | Color (Listeria innocua 036; Tin chloride 50 mg/l, 48 H): orange | Intensity (Listeria innocua 036; Tin chloride 50 mg/l, 48 H): 4 arbitrary units | Color (Listeria ivanovii 020; Aluminum sulfate 50 mg/l, 24 H): red | Intensity (Listeria ivanovii 020; Aluminum sulfate 50 mg/l, 24 H): 4 arbitrary units | Color (Listeria ivanovii 020; Aluminum sulfate 50 mg/l, 48 H): red | Intensity (Listeria ivanovii 020; Aluminum sulfate 50 mg/l, 48 H): 4 arbitrary units | Color (Listeria ivanovii 020; Control, no metal salt, 24 H): purple | Intensity (Listeria ivanovii 020; Control, no metal salt, 24 H): 2.3 arbitrary units | Color (Listeria ivanovii 020; Control, no metal salt, 48 H): purple | Intensity (Listeria ivanovii 020; Control, no metal salt, 48 H): 2.3 arbitrary units | Color (Listeria ivanovii 020; Iron citrate 50 mg/l, 24 H): purple | Intensity (Listeria ivanovii 020; Iron citrate 50 mg/l, 24 H): 4 arbitrary units | Color (Listeria ivanovii 020; Iron citrate 50 mg/l, 48 H): purple | Intensity (Listeria ivanovii 020; Iron citrate 50 mg/l, 48 H): 4 arbitrary units | Color (Listeria ivanovii 020; [3]): purple | Intensity (Listeria ivanovii 020; [3]): 2.7 arbitrary units | Color (Listeria ivanovii 020; [4]): purple | Intensity (Listeria ivanovii 020; [4]): 2.7 arbitrary units | Color (Listeria ivanovii 020; Tin chloride 50 mg/l, 24 H): orange | Intensity (Listeria ivanovii 020; Tin chloride 50 mg/l, 24 H): 3 arbitrary units | Color (Listeria ivanovii 020; Tin chloride 50 mg/l, 48 H): orange | Intensity (Listeria ivanovii 020; Tin chloride 50 mg/l, 48 H): 4 arbitrary units | Color (Listeria ivanovii 032; Aluminum sulfate 50 mg/l, 24 H): red | Intensity (Listeria ivanovii 032; Aluminum sulfate 50 mg/l, 24 H): 4 arbitrary units | Color (Listeria ivanovii 032; Aluminum sulfate 50 mg/l, 48 H): red | Intensity (Listeria ivanovii 032; Aluminum sulfate 50 mg/l, 48 H): 4 arbitrary units | Color (Listeria ivanovii 032; Control, no metal salt, 24 H): purple | Intensity (Listeria ivanovii 032; Control, no metal salt, 24 H): 2.3 arbitrary units | Color (Listeria ivanovii 032; Control, no metal salt, 48 H): purple | Intensity (Listeria ivanovii 032; Control, no metal salt, 48 H): 2.3 arbitrary units | Color (Listeria ivanovii 032; Iron citrate 50 mg/l, 24 H): purple | Intensity (Listeria ivanovii 032; Iron citrate 50 mg/l, 24 H): 4 arbitrary units | Color (Listeria ivanovii 032; Iron citrate 50 mg/l, 48 H): purple | Intensity (Listeria ivanovii 032; Iron citrate 50 mg/l, 48 H): 4 arbitrary units | Color (Listeria ivanovii 032; [3]): purple | Intensity (Listeria ivanovii 032; [3]): 2.3 arbitrary units | Color (Listeria ivanovii 032; [4]): purple | Intensity (Listeria ivanovii 032; [4]): 2.3 arbitrary units | Color (Listeria ivanovii 032; Tin chloride 50 mg/l, 24 H): orange | Intensity (Listeria ivanovii 032; Tin chloride 50 mg/l, 24 H): 3 arbitrary units | Color (Listeria ivanovii 032; Tin chloride 50 mg/l, 48 H): orange | Intensity (Listeria ivanovii 032; Tin chloride 50 mg/l, 48 H): 4 arbitrary units | Color ([1]; Aluminum sulfate 50 mg/l, 24 H): red | Intensity ([1]; Aluminum sulfate 50 mg/l, 24 H): 4 arbitrary units | Color ([1]; Aluminum sulfate 50 mg/l, 48 H): red | Intensity ([1]; Aluminum sulfate 50 mg/l, 48 H): 4 arbitrary units | Color ([1]; Control, no metal salt, 24 H): purple | Intensity ([1]; Control, no metal salt, 24 H): 2 arbitrary units | Color ([1]; Control, no metal salt, 48 H): purple | Intensity ([1]; Control, no metal salt, 48 H): 2 arbitrary units | Color ([1]; Iron citrate 50 mg/l, 24 H): purple | Intensity ([1]; Iron citrate 50 mg/l, 24 H): 4 arbitrary units | Color ([1]; Iron citrate 50 mg/l, 48 H): purple | Intensity ([1]; Iron citrate 50 mg/l, 48 H): 4 arbitrary units | Color [1, 3]: purple | Intensity [1, 3]: 2.7 arbitrary units | Color [1, 4]: purple | Intensity [1, 4]: 2.7 arbitrary units | Color ([1]; Tin chloride 50 mg/l, 24 H): orange | Intensity ([1]; Tin chloride 50 mg/l, 24 H): 3 arbitrary units | Color ([1]; Tin chloride 50 mg/l, 48 H): orange | Intensity ([1]; Tin chloride 50 mg/l, 48 H): 4 arbitrary units | Color ([2]; Aluminum sulfate 50 mg/l, 24 H): red | Intensity ([2]; Aluminum sulfate 50 mg/l, 24 H): 4 arbitrary units | Color ([2]; Aluminum sulfate 50 mg/l, 48 H): red | Intensity ([2]; Aluminum sulfate 50 mg/l, 48 H): 4 arbitrary units | Color ([2]; Control, no metal salt, 24 H): purple | Intensity ([2]; Control, no metal salt, 24 H): 2.3 arbitrary units | Color ([2]; Control, no metal salt, 48 H): purple | Intensity ([2]; Control, no metal salt, 48 H): 2.3 arbitrary units | Color ([2]; Iron citrate 50 mg/l, 24 H): purple | Intensity ([2]; Iron citrate 50 mg/l, 24 H): 4 arbitrary units | Color ([2]; Iron citrate 50 mg/l, 48 H): purple | Intensity ([2]; Iron citrate 50 mg/l, 48 H): 4 arbitrary units | Color [2, 3]: purple | Intensity [2, 3]: 2.7 arbitrary units | Color [2, 4]: purple | Intensity [2, 4]: 2.7 arbitrary units | Color ([2]; Tin chloride 50 mg/l, 24 H): orange | Intensity ([2]; Tin chloride 50 mg/l, 24 H): 3.5 arbitrary units | Color ([2]; Tin chloride 50 mg/l, 48 H): orange | Intensity ([2]; Tin chloride 50 mg/l, 48 H): 4 arbitrary units | Color (Listeria welshimeri 023; Aluminum sulfate 50 mg/l, 24 H): red | Intensity (Listeria welshimeri 023; Aluminum sulfate 50 mg/l, 24 H): 4 arbitrary units | Color (Listeria welshimeri 023; Aluminum sulfate 50 mg/l, 48 H): red | Intensity (Listeria welshimeri 023; Aluminum sulfate 50 mg/l, 48 H): 4 arbitrary units | Color (Listeria welshimeri 023; Control, no metal salt, 24 H): purple | Intensity (Listeria welshimeri 023; Control, no metal salt, 24 H): 2.3 arbitrary units | Color (Listeria welshimeri 023; Control, no metal salt, 48 H): purple | Intensity (Listeria welshimeri 023; Control, no metal salt, 48 H): 2.3 arbitrary units | Color (Listeria welshimeri 023; Iron citrate 50 mg/l, 24 H): purple | Intensity (Listeria welshimeri 023; Iron citrate 50 mg/l, 24 H): 4 arbitrary units | Color (Listeria welshimeri 023; Iron citrate 50 mg/l, 48 H): purple | Intensity (Listeria welshimeri 023; Iron citrate 50 mg/l, 48 H): 4 arbitrary units | Color (Listeria welshimeri 023; [3]): purple | Intensity (Listeria welshimeri 023; [3]): 2.3 arbitrary units | Color (Listeria welshimeri 023; [4]): purple | Intensity (Listeria welshimeri 023; [4]): 2.7 arbitrary units | Color (Listeria welshimeri 023; Tin chloride 50 mg/l, 24 H): orange | Intensity (Listeria welshimeri 023; Tin chloride 50 mg/l, 24 H): 3 arbitrary units | Color (Listeria welshimeri 023; Tin chloride 50 mg/l, 48 H): orange | Intensity (Listeria welshimeri 023; Tin chloride 50 mg/l, 48 H): 4 arbitrary units
